Measurements: publication PMC6273446, “Preliminary LC-MS Based Screening for Inhibitors of Plasmodium falciparum Thioredoxin Reductase (PfTrxR) among a Set of Antimalarials from the Malaria Box” (Molecules, 2016)
Like-named read-outs stand apart in the source and are kept apart here.

Key:
[1] = biological target: T1, Plasmodium falciparum thioredoxin reductase (PfTrxR) (Plasmodium falciparum, UniProt P61076); assay: biochemical; format: biochemical; settings: for Hill slope of dose response curve against PfTrxR: Figure 2; for IC50: cytosolic PfTrxR (PfTrxR 1 isoform), titrated 50 to 0.07 µM
T1 sequence (P61076 1-541 isoform P61076-2): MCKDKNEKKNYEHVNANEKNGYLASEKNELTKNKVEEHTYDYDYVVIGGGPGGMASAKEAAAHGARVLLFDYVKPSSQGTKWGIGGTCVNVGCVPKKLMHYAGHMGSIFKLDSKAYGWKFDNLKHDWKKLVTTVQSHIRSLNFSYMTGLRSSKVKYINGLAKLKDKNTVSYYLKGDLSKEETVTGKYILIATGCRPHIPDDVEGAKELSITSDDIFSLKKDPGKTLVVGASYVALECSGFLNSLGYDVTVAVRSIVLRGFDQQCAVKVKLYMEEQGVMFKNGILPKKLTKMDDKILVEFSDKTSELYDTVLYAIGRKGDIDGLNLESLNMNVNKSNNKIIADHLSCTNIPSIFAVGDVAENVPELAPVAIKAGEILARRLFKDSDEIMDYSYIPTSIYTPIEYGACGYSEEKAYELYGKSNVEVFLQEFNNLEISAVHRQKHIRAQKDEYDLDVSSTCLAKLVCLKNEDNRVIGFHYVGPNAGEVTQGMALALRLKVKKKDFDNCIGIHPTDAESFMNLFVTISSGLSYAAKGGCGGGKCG

P. falciparum 3D7 = settings: read-out: Pf(3D7) EC50, cited from earlier work
[2] = test system: MRC-5 cells (human fetal lung cells); settings: cited from earlier work
[3] = chloroquine sensitive, sulfadoxine resistant strain, MMV database ref 10
[4] = read-out: MRC-5 Cells IC50, human fetal lung cells, cytotoxicity, MMV database ref 10

| Structure (SMILES) | Hill slope of dose response curve against PfTrxR [1] | IC50 [1] | EC50 (P. falciparum 3D7; [3]) | IC50 [2, 4] | IC50 [2] | EC50 (P. falciparum 3D7) |
| --- | --- | --- | --- | --- | --- | --- |
| CCc1c(C)c(=N)c2ccccc2n1C [Compound 1, 2-ethyl-1,3-dimethylquinolin-4-imine;hydroiodide] | 1.1420 | 3.5 µM | 378 nM |  |  |  |
| N.N.[Cl][Pt][Cl] [Cisplatin, reference compound] |  |  |  |  | 19.6 µM |  |
| CCN(CC)CCCC(C)Nc1ccnc2cc(Cl)ccc12 (centres unmarked) [Chloroquine, reference compound] |  |  | 27.3 nM |  |  |  |
| O=C1C(O)=C([C@H]2CC[C@H](c3ccc(Cl)cc3)CC2)C(=O)c2ccccc21 [Atovaquone, reference compound] |  | > 10 µM |  |  |  | 0.24 nM |
| C[C@@H]1CC[C@H]2[C@@H](C)C(=O)O[C@@H]3O[C@@]4(C)CC[C@@H]1[C@]32OO4 [Artemisinin, reference compound] |  |  | 20.7 nM |  |  |  |

More lines, main results first:

| Hill slope of dose response curve against PfTrxR [1] | IC50 [1] | Structure (SMILES) | EC50 (P. falciparum 3D7; [3]) | IC50 [2, 4] | IC50 [2] | EC50 (P. falciparum 3D7) |
| --- | --- | --- | --- | --- | --- | --- |
| 0.6031 | 0.9 µM | COc1ccccc1NC1=C(N2CCCCC2)C(=O)c2ccccc2C1=O [Compound 2, 2-(2-methoxyanilino)-3-piperidin-1-ylnaphthalene-1,4-dione] | 5.3 nM | 68.7 µM |  |  |
| 2.0020 |  | COc1ccc(-c2c(C)nn3c(N)c(C#N)cnc23)cc1OC [Compound 4, 7-amino-3-(3,4-dimethoxyphenyl)-2-methylpyrazolo[1,5-a]pyrimidine-6-carbonitrile] | 477 nM | > 100 µM |  |  |
| 0.8022 | 6.6 µM | CCOc1cc2c(cc1OCC)C(c1cc(OC)c(O)cc1Cl)NCC2 (centres unmarked) [Compound 3, 5-chloro-4-(6,7-diethoxy-1,2,3,4-tetrahydroisoquinolin-1-yl)-2-methoxyphenol] | 370 nM | 85.4 µM |  |  |
| 1.1510 | 7.5 µM | CCCc1c(CC)c(=N)c2ccccc2n1C [Compound 5, 3-ethyl-1-methyl-2-propylquinolin-4-imine;hydron;iodide] | 242 nM | 71.2 µM |  |  |
